Data from paper PMC9995496, “A screen for MeCP2-TBL1 interaction inhibitors using a luminescence-based assay” (Scientific Reports, 2023).
Where a name gives a salt, the structure may show the parent alone. Read-outs that look alike come from different tables or passages of the source.

System: PRKACA-PRKAR2A interaction (SmBiT-PRKACA / LgBiT-PRKAR2A), protein kinase A
Parameters: NanoLuc complementation counter-screen in cell extract, PRKACA with PRKAR2A, loss of luminescence, detects NanoLuc interference
Details: 0.5 h, 20 µM, inhibitor
[1] = counter-screen for NanoLuc interference

Row | Compound | Inh (PKA) [1] [%] | also measured
1 | Cn1cnc2c(F)c(Nc3ccc(Br)cc3F)c(C(=O)NOCCO)cc21 [UM0141435:01, MEK162 (ARRY-162, ARRY-438162)] | 13.83 | –
2 | CCN(CC)CCCC(C)Nc1nc(C)cc(Nc2ccc3nc(C)cc(N)c3c2)n1 (stereo not drawn) [UM0141436:01, NSC 23766] | 2.521 | –
3 | COc1cc([C@@H]2c3cc4c(cc3[C@@H](O[C@@H]3O[C@@H]5CO[C@@H](C)O[C@H]5[C@H](O)[C@H]3O)[C@H]3COC(=O)[C@H]23)OCO4)cc(OC)c1O [UM0141437:01, Etoposide] | 1.839 | –
4 | CC(C)(C)c1cnc(CSc2cnc(NC(=O)C3CCNCC3)s2)o1 [UM0141438:01, SNS-032 (BMS-387032)] | 4.184 | –
5 | Cn1c(CCCC(=O)O)nc2cc(N(CCCl)CCCl)ccc21 [UM0141439:01, Bendamustine HCl] | -0.1879 | –
6 | C=CC(=O)Nc1ccc2ncnc(Nc3cccc(Br)c3)c2c1 [UM0141440:01, PD168393] | 22.44 | –
7 | Cc1ccccc1-n1c(Cn2cnc3c(N)ncnc32)nc2cccc(C)c2c1=O [UM0141441:01, IC-87114] | 5.733 | –
8 | Cc1ccc([N+](=O)[O-])cc1S(=O)(=O)N(C)/N=C/c1cnc2ccc(Br)cn12 [UM0141442:01, PIK-75] | 46.51 | –
9 | CN1CCN(CCOc2cc(OC3CCOCC3)c3c(Nc4c(Cl)ccc5c4OCO5)ncnc3c2)CC1 [UM0141443:01, Saracatinib (AZD0530)] | 2.374 | –
10 | COc1cc(Nc2c(C#N)cnc3cc(OCCCN4CCN(C)CC4)c(OC)cc23)c(Cl)cc1Cl [UM0141444:01, Bosutinib (SKI-606)] | 20.21 | –
11 | CC(=O)Nc1ccc(OC[C@](C)(O)C(=O)Nc2ccc([N+](=O)[O-])c(C(F)(F)F)c2)cc1 [UM0141445:01, Andarine] | – | Inh (PKA): 7.113%
12 | CN1CCN(c2ccc3nc(-c4c(N)c5c(F)cccc5[nH]c4=O)[nH]c3c2)CC1 [UM0141446:01, Dovitinib (TKI-258, CHIR-258)] | – | Inh (PKA) (counter-screen for NanoLuc interference, Inh (PKA)): 5.935%
13 | O=C(NNc1nc2cc(F)ccc2n2cccc12)c1cnccn1 [UM0141448:01, SC 144] | 4.683 | –
14 | O=[N+]([O-])c1ccc2c(c1)S(=O)(=O)C=C2 [UM0141450:01, Stattic] | 9.361 | –
15 | Cc1cc(N2CCOCC2)cc2[nH]c(-c3c(NC[C@@H](O)c4cccc(Cl)c4)cc[nH]c3=O)nc12 [UM0141451:01, BMS-536924] | 41.39 | –
16 | O=S(=O)(c1ccccc1)N(CC(F)(F)F)c1ccc(C(O)(C(F)(F)F)C(F)(F)F)cc1 [UM0141452:01, T0901317] | 30.09 | –
17 | Nc1ncnc2c1c(-c1cccc(OCc3ccccc3)c1)cn2[C@H]1C[C@@H](CN2CCC2)C1 [UM0141453:01, NVP-AEW541] | 10.76 | –
18 | Cc1[nH]c(/C=C2\C(=O)Nc3ccc(S(=O)(=O)Cc4c(Cl)cccc4Cl)cc32)c(C)c1C(=O)N1CCC[C@@H]1CN1CCCC1 [UM0141454:01, PHA-665752] | 72.78 | –
19 | CNCc1cc(-c2ccccc2F)n(S(=O)(=O)c2cccnc2)c1 [UM0141455:01, TAK-438] | 1.837 | –
20 | C[C@@H]1C[C@H]2[C@@H]3CCC4=CC(=O)C=C[C@]4(C)[C@@]3(F)[C@@H](O)C[C@]2(C)[C@@]1(O)C(=O)CO [UM0141456:01, Dexamethasone (DHAP)] | 0.4412 | –
21 | COCC(=O)NC/C=C/c1ccc2ncnc(Nc3ccc(Oc4ccc(C)nc4)c(C)c3)c2c1 [UM0141457:01, CP-724714] | 30.01 | –
22 | C[C@H]1O[C@H](O[C@H]2[C@H](O)[C@@H](O)[C@@H](O[C@H]3[C@H](O)[C@@H](O)C(O)O[C@@H]3CO)O[C@@H]2CO)[C@H](O)[C@@H](O)[C@@H]1N[C@H]1C=C(CO)[C@@H](O)[C@H](O)[C@H]1O (stereo partly drawn) [UM0141458:01, Acarbose] | 2.661 | –
23 | NCCC(O)(P(=O)(O)O)P(=O)(O)O [UM0141459:01, Pamidronate Disodium] | 0.7087 | –
24 | CC(=O)[C@]1(O)Cc2c(O)c3c(c(O)c2[C@@H](O[C@H]2C[C@H](N)[C@H](O)[C@H](C)O2)C1)C(=O)c1ccccc1C3=O [UM0141460:01, Idarubicin HCl] | 47.84 | –
